Measurements as given in patent US4265901A, “2-Oxybenzimidazoline compounds” (priority 1979, dated 1981).
Counter-ions that a name gives are not always drawn.

Tests used:
adult housefly [1] = test: Efficacy against adult housefly, calves subcutaneous pellets (Example 20); assay type: in vivo, Musca domestica; conditions: Musca domestica, sc, test day per line
Description: (§1) For the adult housefly test, 10 ml. of serum were employed to saturate a wick which was placed in a petri dish. Twenty-five chilled houseflies were placed in the dish which was then incubated for 24 hours at 27° C. and 50% relative humidity. After the end of the twenty-four hours, the efficacy of the candidate compound was determined as the percent mortality of housefly, adjusted as for blowfly by normal mortality in a control and reported according to the same scale as above.
The compound of Example 2, 2-hydroxy-2-(1,1,2,2-tetrafluoroethyl)-4-nitro-6-(trifluoromethyl)benzimidazoline sodium salt, was formulated neat into tablets, each containing about 85 mg. of compound.
These pellets were implanted in the right shoulder area of two calves, weighing 400 and 373 kilograms respectively, to supply a dose of about 5 mg./kg. (animals #651 and 1511, respectively). Another calf (animal #656) was maintained as a control and two additional calves weighing 336 and 350 kilograms (animals #654 and 655, respectively) received pellets of 2-(1,1,2,2-tetrafluoroethyl)-4-nitro-6-(trifluoromethyl)benzimidazole, to supply a dose of about 5 mg./kg. of compound.
(§2) As described in preceding examples, blood samples were withdrawn and analyzed for the concentration of the compound in the blood and percent efficacy against adult housefly and blowfly larvae.

blowfly larvae [2] = test: Efficacy against blowfly larvae, calves subcutaneous pellets (Example 20); assay type: in vivo; conditions: Phormia regina, sc, test day per line
Description: (§3) Representative compounds of the present invention were evaluated against larvae of blowfly (Phormia regina) and against adult housefly (Musca domestica). In these evaluations, the candidate compound was administered to each of two male guinea pigs weighing from about 400 grams to about 1000 grams. Administration was via the intraperitoneal route, the compound having been formulated in sesame oil. At twenty-four hours following administration of the compound, blood was withdrawn from the guinea pigs. The serum portion was isolated and blowfly larvae and adult houseflies were fed on the serum. For the blowfly assay, 10 ml. of serum were placed in a test tube with a wick onto which 50 blowfly larvae were placed. The covered test tube was incubated at 27° C. for 24 hours, at which time efficacy of the candidate compound was determined as the percent mortality of the blowfly larvae, adjusted by normal mortality in a control, and reported according to the following rating scale:
The compound of Example 2, 2-hydroxy-2-(1,1,2,2-tetrafluoroethyl)-4-nitro-6-(trifluoromethyl)benzimidazoline sodium salt, was formulated neat into tablets, each containing about 85 mg. of compound. […]
as §2

[3] = CRC Handbook of Chemistry and Physics; cited from earlier work
calf = test: Tolerability in calves (Example 19); assay type: in vivo
Description: The compound of Example 3, 2-hydroxy-2,6-bis(trifluoromethyl)-4-nitrobenzimidazoline, sodium salt was evaluated as an ectoparasiticide when administered as pellets implanted in the ear of a calf numbered animal 106. The compound was formulated neat, in tablets about 1/8" thick. A total of 14 pellets was inserted into the left ear of a 215-kilogram calf, to supply a dose of about 5 mg./kg. […] Two other calves received intramuscular injections of aqueous solutions of 2-hydroxy-2,6-bis(trifluoromethyl)-4-nitrobenzimidazoline, sodium salt, to provide 5 or 7.5 mg./kg. of animal body weight. (animals 119 and 121 respectively). […] A control animal was also maintained throughout the test period.

guinea pigs = test: Mortality of guinea pigs after intraperitoneal dosing; assay type: in vivo, guinea pig; conditions: for death of guinea pigs: two animals
Description: as §3, with “scale: […]” for “scale:”

blowfly larvae [4] = test: Blowfly larvae fed on serum of dosed guinea pigs; assay type: in vivo, Phormia regina; conditions: guinea pig, serum at 24 hours
Description: as §3
(§4) Percent mortality was determined separately for each guinea pig.

adult housefly [5] = test: Adult houseflies fed on serum of dosed guinea pigs; assay type: in vivo, Musca domestica; conditions: guinea pig, serum at 24 hours
Description: as §3, §4, §1

[6] = calf 654, pellets about 5 mg./kg.
[7] = calf 655, pellets about 5 mg./kg.

Q: For O=[N+]([O-])c1cc(C(F)(F)F)cc2nc(C(F)(F)C(F)F)[nH]c12 [2-(1,1,2,2-tetrafluoroethyl)-4-nitro-6-(trifluoromethyl)benzimidazole, reference compound], which Emax at 5 mg/kg (adult housefly [1]; [6]) is on record?
A: 100%

Q: What about the Emax at 5 mg/kg (adult housefly [1]; [7]) of the same compound?
A: 100%

Q: What about the Emax at 5 mg/kg (blowfly larvae [2]; [6]) of the same compound?
A: 100%

Q: What about the Emax at 5 mg/kg (blowfly larvae [2]; [7]) of the same compound?
A: 100%

Q: Which Kb [3] does the source give for N [Ammonia, ammonia] here?
A: 1.79×10^-5

Q: For O=[N+]([O-])c1cc(C(F)(F)F)cc2c1NC(O)(C(F)(F)F)N2 (centres unmarked) [Example 3, 2-Hydroxy-2,6-Bis(Trifluoromethyl)-4-Nitrobenzimidazoline, Sodium Salt, Monohydrate], which swelling post-insertion (calf; calf 106, 14 ear pellets, about 5 mg./kg., 6 hours and 1 day) is on record?
A: Some swelling was noted

Q: What about the death of calf (calf; calf 121, 7.5 mg./kg. intramuscular) of the same compound?
A: found dead on day 2

Q: Which results are given for CC(C)OC1(C(F)(F)C(F)F)Nc2cc(C(F)(F)F)cc([N+](=O)[O-])c2N1 (centres unmarked) [Example 4, 2-Isopropoxy-2-(1,1,2,2-Tetrafluoroethyl)-4-Nitro-6-(Trifluoromethyl)Benzimidazoline, Potassium Salt]?
A: death of guinea pigs (guinea pigs; 10 mg./kg. i.p.): Both guinea pigs died; Efficacy Rating, Blowfly Larvae (blowfly larvae [4]; 5 mg./kg. i.p.): 5 (100% dead); Efficacy Rating, Adult Housefly (adult housefly [5]; 5 mg./kg. i.p.): 5 (100% dead)

Q: Which “death of guinea pig” value (guinea pigs; 5 mg./kg. i.p., one of two animals) does the source give for O=[N+]([O-])c1cc(C(F)(F)F)cc2c1NC(O)(C(F)(F)C(F)F)N2 (centres unmarked) [Example 6, 2-Hydroxy-2-(1,1,2,2-Tetrafluoroethyl)-4-Nitro-6-(Trifluoromethyl)Benzimidazoline, Calcium Salt] here?
A: Guinea pig died

Q: What about the “Efficacy Rating, Blowfly Larvae” value (blowfly larvae [4]; 5 mg./kg. i.p.) of the same compound?
A: 5 (100% dead)

Q: And the “Efficacy Rating, Blowfly Larvae” value (blowfly larvae [4]; 10 mg./kg. i.p., Calcium Salt)?
A: 5 (100% dead)

Q: And the “Efficacy Rating, Adult Housefly” value (adult housefly [5]; 5 mg./kg. i.p.)?
A: 5 (100% dead)

Q: What about the “Efficacy Rating, Adult Housefly” value (adult housefly [5]; 10 mg./kg. i.p., Calcium Salt) of the same compound?
A: 5 (100% dead)

Q: Which “death of guinea pigs” value (guinea pigs; 25 mg./kg. i.p.) does the source give for O=[N+]([O-])c1cc(C(F)(F)F)cc2c1NC(O)(C(F)(F)C(F)F)N2 (centres unmarked) [Example 7, 2-Hydroxy-2-(1,1,2,2-Tetrafluoroethyl)-4-Nitro-6-(Trifluoromethyl)Benzimidazoline, Silver Salt] here?
A: guinea pigs died

Q: And the “death of guinea pigs” value (guinea pigs; 50 mg./kg. i.p.)?
A: guinea pigs died

Q: Which “death of guinea pigs” value (guinea pigs; 20 mg./kg. i.p.) does the source give for O=[N+]([O-])c1cc(C(F)(F)F)cc2c1NC(O)(C(F)(F)C(F)F)N2 (centres unmarked) [Example 8, 2-Hydroxy-2-(1,1,2,2-Tetrafluoroethyl)-4-Nitro-6-(Trifluoromethyl)Benzimidazoline, Lithium Salt] here?
A: Both guinea pigs died

Q: And the “Efficacy Rating, Blowfly Larvae” value (blowfly larvae [4]; 5 mg./kg. i.p.)?
A: 5 (100% dead)

Q: What about the “Efficacy Rating, Adult Housefly” value (adult housefly [5]; 5 mg./kg. i.p.) of the same compound?
A: 5 (100% dead)
